The source made the active and inactive calls. The calls are words filed in the database; no cut-off is given here.
Experiments:
Cholinesterase = Cholinesterase (Equus caballus, UniProt P81908)
Description: Inhibition of horse serum BChE using BTC as substrate preincubated for 15 mins followed by substrate addition by UV-spectrophotometric analysis

Acetylcholinesterase = Acetylcholinesterase (Electrophorus electricus, UniProt O42275)
Description: Inhibition of electric eel AChE using ATC as substrate preincubated for 15 mins followed by substrate addition by UV-spectrophotometric analysis

PC-12 [1] = assay: Antioxidant activity in rat PC12 cells assessed as decrease of H2O2-induced ROS production at 2.5 uM preincubated for 2 hrs followed by H2O2 addition for 24 hrs by DCFH-DA /DAPI-based fluorescence assay; format: functional, cell-based
PC-12 [2] = assay: Protective effect against H2O2-induced cell death in rat PC12 cells at 5 uM preincubated for 2 hrs followed by H2O2 addition for 24 hrs by MTT assay; format: functional, cell-based
[3] = biological target: T1, Amyloid-beta precursor protein (Homo sapiens, UniProt P05067); assay: Potency index, ratio of curcumin IC50 to compound IC50 for self-mediated amyloid beta (1 to 42) (unknown origin) aggregation
T1 sequence (P05067 whole entry): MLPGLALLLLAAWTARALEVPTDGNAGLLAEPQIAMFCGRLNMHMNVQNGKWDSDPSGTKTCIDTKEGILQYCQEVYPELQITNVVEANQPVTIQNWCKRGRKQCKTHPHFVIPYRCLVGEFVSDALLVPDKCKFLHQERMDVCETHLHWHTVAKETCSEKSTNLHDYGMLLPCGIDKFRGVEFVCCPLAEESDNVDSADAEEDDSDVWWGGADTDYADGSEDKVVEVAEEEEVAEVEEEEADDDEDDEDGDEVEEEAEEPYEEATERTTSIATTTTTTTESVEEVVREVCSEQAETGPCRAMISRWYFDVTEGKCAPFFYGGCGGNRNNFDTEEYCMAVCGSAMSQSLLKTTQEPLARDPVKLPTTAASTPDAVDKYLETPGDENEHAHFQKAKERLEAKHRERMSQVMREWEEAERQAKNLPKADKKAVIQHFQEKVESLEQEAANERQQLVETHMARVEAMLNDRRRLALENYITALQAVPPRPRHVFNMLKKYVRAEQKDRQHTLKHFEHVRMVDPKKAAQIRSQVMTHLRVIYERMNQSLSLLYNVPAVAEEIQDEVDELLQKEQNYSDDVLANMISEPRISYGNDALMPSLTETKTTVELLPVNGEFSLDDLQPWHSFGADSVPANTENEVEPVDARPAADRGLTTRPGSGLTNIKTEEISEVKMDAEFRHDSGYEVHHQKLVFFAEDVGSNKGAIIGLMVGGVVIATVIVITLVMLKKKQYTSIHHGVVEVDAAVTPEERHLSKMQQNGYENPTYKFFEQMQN

PC-12 [4] = assay: Protective effect against H2O2-induced cell death in rat PC12 cells at 1 to 5 uM preincubated for 2 hrs followed by H2O2 addition for 24 hrs by MTT assay; format: functional, cell-based
Rattus norvegicus = species: Rattus norvegicus; assay: Cytotoxicity against rat PC12 cells assessed as reduction in cell viability at 1 to 5 uM after 2 hrs by MTT assay; format: toxicity; settings: pc-12, 2 h
[5] = biological target: T1, Amyloid-beta precursor protein
Description: Inhibition of self-mediated amyloid beta (1 to 42) (unknown origin) aggregation after 48 hrs by thioflavin T fluorescence assay

[6] = biological target: Cholinesterase (Equus caballus) (UniProt P81908); assay: Mixed-type inhibition of horse serum BChE using BTC as substrate at 12.5 to 100 nM preincubated for 15 mins followed by substrate addition by Lineweavere-Burk plot analysis
Chain of Cholinesterase (Equus caballus) (P81908 whole entry): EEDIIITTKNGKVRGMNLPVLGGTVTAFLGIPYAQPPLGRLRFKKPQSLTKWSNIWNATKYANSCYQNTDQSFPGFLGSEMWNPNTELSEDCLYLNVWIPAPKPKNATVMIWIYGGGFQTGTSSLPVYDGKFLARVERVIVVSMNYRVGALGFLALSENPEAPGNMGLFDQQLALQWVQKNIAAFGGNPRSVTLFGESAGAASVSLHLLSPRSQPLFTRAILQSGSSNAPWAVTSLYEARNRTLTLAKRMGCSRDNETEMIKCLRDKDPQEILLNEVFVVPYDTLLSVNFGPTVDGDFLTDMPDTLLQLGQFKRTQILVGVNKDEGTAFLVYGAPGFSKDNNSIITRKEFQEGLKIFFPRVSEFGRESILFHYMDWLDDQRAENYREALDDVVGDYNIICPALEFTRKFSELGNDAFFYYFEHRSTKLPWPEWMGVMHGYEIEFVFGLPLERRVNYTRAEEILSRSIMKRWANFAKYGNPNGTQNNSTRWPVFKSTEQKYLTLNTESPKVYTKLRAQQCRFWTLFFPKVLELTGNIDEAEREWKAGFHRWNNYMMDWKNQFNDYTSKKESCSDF

[7] = biological target: Acetylcholinesterase (Electrophorus electricus) (UniProt O42275); assay: Mixed-type inhibition of electric eel AChE using ATC as substrate at 25 to 100 nM preincubated for 15 mins followed by substrate addition by Lineweavere-Burk plot analysis
Chain of Acetylcholinesterase (Electrophorus electricus) (O42275 24-633 limits assumed): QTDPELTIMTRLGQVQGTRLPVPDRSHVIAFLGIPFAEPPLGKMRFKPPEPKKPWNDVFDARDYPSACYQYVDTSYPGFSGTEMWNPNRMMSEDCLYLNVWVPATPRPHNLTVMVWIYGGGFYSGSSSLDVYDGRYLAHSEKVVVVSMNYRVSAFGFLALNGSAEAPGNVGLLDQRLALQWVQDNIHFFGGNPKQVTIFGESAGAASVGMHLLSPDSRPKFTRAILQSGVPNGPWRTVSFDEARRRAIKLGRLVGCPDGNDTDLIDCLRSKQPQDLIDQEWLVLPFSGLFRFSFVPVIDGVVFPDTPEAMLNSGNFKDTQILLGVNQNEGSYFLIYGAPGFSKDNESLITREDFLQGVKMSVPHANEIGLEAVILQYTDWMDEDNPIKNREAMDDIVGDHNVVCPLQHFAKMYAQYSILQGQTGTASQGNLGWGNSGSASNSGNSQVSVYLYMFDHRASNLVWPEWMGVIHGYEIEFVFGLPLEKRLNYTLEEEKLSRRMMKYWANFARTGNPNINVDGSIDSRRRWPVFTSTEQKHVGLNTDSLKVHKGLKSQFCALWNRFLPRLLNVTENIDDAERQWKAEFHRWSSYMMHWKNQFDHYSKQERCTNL

[8] = biological target: Acetylcholinesterase (Electrophorus electricus) (UniProt O42275); assay: Mixed-type inhibition of electric eel AChE using ATC as substrate at 1.25 to 5 uM preincubated for 15 mins followed by substrate addition by Lineweavere-Burk plot analysis
[9] = biological target: Cholinesterase (Equus caballus) (UniProt P81908); settings: 125 to 500 nM

Chain of Acetylcholinesterase (O42275 whole entry): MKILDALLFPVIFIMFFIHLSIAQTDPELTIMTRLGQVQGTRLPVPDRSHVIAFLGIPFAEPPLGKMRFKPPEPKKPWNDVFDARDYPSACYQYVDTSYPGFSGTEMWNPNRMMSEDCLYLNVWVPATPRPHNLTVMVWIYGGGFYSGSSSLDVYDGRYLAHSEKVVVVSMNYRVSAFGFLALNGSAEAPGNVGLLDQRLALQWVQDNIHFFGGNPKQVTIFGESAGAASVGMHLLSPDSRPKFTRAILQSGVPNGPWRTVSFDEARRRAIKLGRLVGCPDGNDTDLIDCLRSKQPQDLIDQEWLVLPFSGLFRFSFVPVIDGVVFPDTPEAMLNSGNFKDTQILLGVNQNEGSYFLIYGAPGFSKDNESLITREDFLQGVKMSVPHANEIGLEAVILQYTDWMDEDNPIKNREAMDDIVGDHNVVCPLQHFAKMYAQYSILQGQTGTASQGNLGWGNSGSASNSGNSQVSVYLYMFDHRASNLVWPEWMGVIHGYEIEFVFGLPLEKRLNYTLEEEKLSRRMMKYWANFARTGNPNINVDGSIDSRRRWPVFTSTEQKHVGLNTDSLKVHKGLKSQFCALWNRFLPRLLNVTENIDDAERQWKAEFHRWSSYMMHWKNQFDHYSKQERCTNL
Chain of Cholinesterase (P81908 whole entry): as the sequence (P81908 whole entry) above

Row | SMILES | IC50 (Cholinesterase) [nM] | IC50 (Acetylcholinesterase) [nM] | further results
1 | CN(C)c1ccc(-c2cc(=O)c3ccc(OCC(=O)NCCCNc4c5c(nc6ccccc46)CCCC5)cc3o2)cc1 | 266 | 769 | 
2 | CN(C)c1ccc(-c2cc(=O)c3ccc(OCC(=O)NCCNc4c5c(nc6ccccc46)CCCC5)cc3o2)cc1 | 814 | 418 | 
3 | CN(C)c1ccc(-c2cc(=O)c3ccc(OCC(=O)NCCCCN4CCCC4)cc3o2)cc1 | 11600 | 4830 | 
4 | CN(C)CCCNC(=O)COc1ccc2c(=O)cc(-c3ccc(N(C)C)cc3)oc2c1 | 13600 | 11900 | 
5 | CN(C)c1ccc(-c2cc(=O)c3ccc(OCC(=O)NCCCCNc4c5c(nc6ccccc46)CCCC5)cc3o2)cc1 | 335 | 1460 | 
6 | CN(C)c1ccc(-c2cc(=O)c3ccc(OCC(=O)NCCCCCCCCNc4c5c(nc6ccccc46)CCCC5)cc3o2)cc1 | 24.7 | 94.6 | 
7 | O=c1c(O)c(-c2ccc(O)c(O)c2)oc2cc(O)cc(O)c12 |  |  | Activity (PC-12 [1]): Active; Activity (PC-12 [2]): Active
8 | CN(C)CCNC(=O)COc1ccc2c(=O)cc(-c3ccc(N(C)C)cc3)oc2c1 | 10700 | 5240 | 
9 | CN(C)c1ccc(-c2cc(=O)c3ccc(OCC(=O)NCCN4CCCC4)cc3o2)cc1 | 27200 | 3130 | 
10 | CN(C)c1ccc(-c2cc(=O)c3ccc(OCC(=O)NCCCCCCN4CCCC4)cc3o2)cc1 | 1350 | 3200 | 
11 | CN(C)c1ccc(-c2cc(=O)c3ccc(OCC(=O)NCCCN4CCCC4)cc3o2)cc1 | 21600 | 7620 | 
12 | CN(C)c1ccc(-c2cc(=O)c3ccc(OCC(=O)NCCCCCCNc4c5c(nc6ccccc46)CCCC5)cc3o2)cc1 | 46.2 | 59.6 | Activity (PC-12 [1]): Active; Ratio IC50 [3]: 2; Activity (PC-12 [4]): Active; Activity (Rattus norvegicus): Non-Toxic; IC50 [5]: 9470 nM; inhibition [6]: Active; inhibition [7]: Active; Activity (PC-12 [2]): Active
13 | CN(C)c1ccc(-c2cc(=O)c3ccc(OCC(=O)NCCCCCCCCN4CCCC4)cc3o2)cc1 | 238 | 2300 | inhibition [8]: Active; inhibition [9]: Active

— ChEMBL document CHEMBL3864125, “Design, synthesis and evaluation of 4-dimethylamine flavonoid derivatives as potential multifunctional anti-Alzheimer agents” (Eur J Med Chem, 2016)
